From US20080124310A1, “Bead based receptor biology” (priority 2006, published 2008)

Legend:
Type in all cases: cell-based, murine
[1] = system: RAW 264.7 macrophages; test: Uptake of free fluorescent DI-LDL or OX-LDL, red fluorescence confocal microscopy; conditions: 594 nm
Description: RAW 264.7 macrophages were cultured in alpha MEM with 5% fetal calf serum as described. The effects of lovastatin on IgG and LDL coated micro-particle engulfment at 0, 50 nM, 100 nM, 500 nM, 1 mM and higher was tested. The accumulation of free DI-LDL was quantified directly by its red fluorescence. External particles were stained green with secondary anti rabbit FITC and then cells were permeablized and all particles stained red with secondary anti rabbit CY3. Thus engulfed particles appear red while external particles appear yellow. Beads within the cells carrying only the red signal (engulfed) and not also the green signal {red+green=yellow} (outside) were quantified for accumulation assays using both total fluorescence in the green channel and by counting individual beads in three fields on three independent cover slips for each concentration.

[2] = system: Thrombospondin; test: Surface expression of thrombospondin on macrophages
Excerpt: Thrombospondin is a protein that is known to bind apolipoprotein and lipid receptors expressed on the surface of cells including the scavenger receptor class B multi ligand receptor CD36 associated with atherosclerosis and Alzheimer's.

[3] = system: RAW macrophages; test: Biochemical measurement of protein levels in fractions of drug treated RAW macrophages
Excerpt: A now well established side effect of ethanol is to prevent heart attack. Thus the common effects of statins, propranolol, and ethanol must be closely linked to the central mechanism that is the most important pharmacological target of heart attack and thus atherosclerosis prevention. It remains possible that the preventative effect of statins results from their effect to inhibit particle engulfment and foam cell formation by macrophages leading to atherosclerotic plaques. We created a foam cell model and quantitative confocal assays for micro particle engulfment by macrophages. The engulfment of particles by macrophages and the generation of free radicals by leukocytes are the key physiological actions that lead to the generation of foam cells that are the center of atherosclerotic plaques. We have made a cellular model system of leukocytes or activated leukocytes or leukocytes treated over time to examine the effects drugs and biopolymer modification materials over time on the activation of receptors at the site of modified or ligand coated particles. The drugs used in this system to examine the kinetics of receptor function at modified particles may result in changes to the cell including changes in gene expression at the level of DNA transcription, RNA production, accumulation or post-transcription processing, mRNA production accumulation or expression all of which may also alter protein expression. We examined the use of these model systems with and without beads as a system to screen the effects of drugs that are known to prevent heart attack and stroke in model of leukocyte cells within atherosclerotic plaques. We observe that drugs that effect receptor associated signaling may also alter gene, RNA or ultimately protein expression in cells resulting in changes in protein levels. Proteins that change levels in response to a drug may be themselves drug target proteins.
The drugs used in the leukocyte model system to examine the kinetics of receptor function at modified particles may result in changes to the cell including changes in gene expression at the level of DNA transcription, RNA production, accumulation or post-transcription processing, mRNA production accumulation or expression all of which may also alter protein expression. We examined the use of these model systems with and without beads as a system to screen the effects of drugs that are known to effect receptor response at or near the cell surface or interior of the cells. We observe that drugs that effect receptor associated signaling may also alter gene, RNA or ultimately protein expression in cells resulting in changes in protein levels. Proteins that change levels in response to a drug may be themselves drug target proteins. […] The RAW leukocyte model foam cells system alone or in combination with the bead based biology system can be used to characterize the effects of receptor or cellular activation in terms of second messengers such as lipid and protein phosphorylation with respect to drug treatment or time in the cytosol of leukocytes (FIG. 67).

[4] = system: RAW 264.7 macrophages; test: Phagocytic receptor assay: engulfment of IgG or ligand coated particles by RAW macrophages (foam cell model), confocal
Excerpt: FIG. 25, panels A and B, illustrate respectfully a method for measurement of phagocytic receptors and a method for measuring transfection or delivery of nucleic acids and simultaneous measurement of particle engulfment using a single cell multi label confocal microscope experiment. A direct or surrogate measurement of receptor function or receptor pathway activity must be made in order establish the role of potential therapeutic target proteins in receptor function. IgG, complement, low density lipoprotein (LDL), oxidatively modified LDL (OX-LDL). Acetyl-LDL, apolipoproteins, lipoproteins, lipopolysaccharide (LPS), scavenger and other receptor functions can be measured by the accumulation of particles. The particles may themselves be comprised in part of fluorescent materials or can be directly stained with fluorescent or other colored materials or can be bound by proteins that directly or indirectly permit the attachment of fluorescent, chemiluminescent or other reporter molecules. The beads may be stained in live cells or cells fixed with formalin or paraformaldehyde or organic solvents such as alcohol and acids or by other means. The beads can be stained both before or after internalization with or without the permeabilization of the cells by detergents or organic solvents. The beads may be cells that can be lysed and imaged directly. The cells may be counter stained for the presence of specific proteins using antibodies or may express fluorescent protein constructs or contain fluorescent silencing RNA or DNA constructs or biopolymer modulating agents or drugs (FIG. 25).
We created a foam cell model and quantitative confocal assays for micro particle engulfment by macrophages. The engulfment of particles by macrophages and the generation of free radicals by leukocytes are the key physiological actions that lead to the generation of foam cells that are the center of atherosclerotic plaques. We made a cellular model system of foam cells or activated leukocytes and examine the effects of moderate levels of alcohol over time on the accumulation of particles and generation of free radicals at the site of particle accumulation compared to statins and propranolol. The model systems will consist of RAW macrophages that engulf hydrophobic polystyrene microparticles with or without coating by ligands or mixtures of ligands such as those found in cellular growth media, or free fluorescently labeled DI-LDL, OX-LDL, Acetyl LDL or other. Live cell confocal microscopy was used to quantify the effects of ethanol, compared to lovastatin and propranolol, on particle engulfment.
External particles were stained green with secondary anti rabbit FITC and then cells were permeablized and all particles stained red with secondary anti rabbit CY3. Thus engulfed particles appear red while external particles appear yellow. Beads within the cells carrying only the red signal (engulfed) and not also the green signal {red+green=yellow} (outside) were quantified for accumulation assays using both total fluorescence in the green channel and by counting individual beads in three fields on three independent cover slips for each concentration.
RAW 264.7 macrophages were cultured in alpha MEM with 5% fetal calf serum as described. The effects of lovastatin on IgG and LDL coated micro-particle engulfment at 0, 50 nM, 100 nM, 500 nM, 1 mM and higher was tested. The accumulation of free DI-LDL was quantified directly by its red fluorescence. External particles were stained green with secondary anti rabbit FITC and then cells were permeablized and all particles stained red with secondary anti rabbit CY3. Thus engulfed particles appear red while external particles appear yellow.

SMILES: CC[C@H](C)C(=O)O[C@H]1C[C@@H](C)C=C2C=C[C@H](C)[C@H](CC[C@@H]3C[C@@H](O)CC(=O)O3)[C@H]21 [lovastatin]
- accumulation of free cholesterol (free fluorescent DI-LDL or OX-LDL) [1]: no effect
- expression of Thrombospondin on the cell surface [2]: lowered the expression of Thrombospondin
- levels of cytosolic proteins (FIG. 57) ([3]; cytosol fraction): alter levels of proteins in the membranes
- levels of proteins in the extracellular matrix (FIG. 55) ([3]; matrix fraction): alter levels of proteins in the extracellular matrix
- levels of proteins in the membranes (FIG. 54) ([3]; membrane fraction): alter levels of proteins in the membranes
- levels of proteins in the secretions (FIG. 56) ([3]; secreted proteins): alter levels of proteins in the secretions
- engulfment / accumulation of IgG or ligand coated particles ([4]; RAW macrophages, confocal): reduced the capacity of RAW macrophages to engulf particles
- dose that directly prevents engulfment of particles ([4]; cultured macrophage leukocytes): ≤ 100 nM
